What was measured:
[1] = test system: Melan-a cell; test: Cytotoxic test (MTT assay), survival rate of cells; type: cell-based, mouse; conditions: 50 ppm, melan-a cells (FIG. 2)
Description: (§1) Melanin-forming cell (melanocyte) derived from C57BL/6J mouse, melan-a cell was cultured by using RPMI-1640 medium (Lonza, USA) with 10% FBS (Fetal Bovine Serum; bovine fetal serum) and 50 U/ml penicillin, 50 μg/ml streptomycin under the condition of 37° C., 10% CO2 and then used in the following experiment.
Melan-a cell cultured by the method of the Reference Example 2 was seeded on 96 well plates so as to be 1.0×10^4 of cell number and then, cultured for 24 hours. […] Absorbance (OD 570) was determined by using microplate reader (Product Name: Synergy 2 (BioTek)), and a survival rate of the cell was determined by comparing it with the control. […]
The method similar to the Experimental Example 1 was used, except that 50 ppm arbutin, Lentinula edodes extracts (12.5, 25, 50, 100 ppm) were used as the sample treated. Absorbance (OD 570) was measured by using microplate reader (Product Name: Synergy 2 (BioTek)), and a survival rate of the cell was determined by comparing it with the control. […]

[2] = test system: Melan-a cell; test: Melanin analysis of melan-a cell (melanin content); type: cell-based, mouse; conditions: melan-a cells (FIG. 3); for effect inhibiting the melanin production: 10 μM, corresponds to 4.44 ppm; for effect of inhibiting melanin production: 0.1, 1, 10 μM, 6 days; for skin whitening effect compared with positive controls (50 ppm arbutin, 50 ppm kojic acid): much less amount than the controls
Description: as §1
The Melan-a cell cultured by the method of the Reference Example 2 was seeded on 48 well plate so as to be 1.5×10^4 of the cell number per well and then, cultured for 24 hours. Then, a new medium containing various concentrations (0.1, 1, 10 μM) of 3β, 5α-dihydroxy-6β-methoxy-(22E, 24R)-ergosta-7,22-diene or 3β, 5α, 9α-trihydroxy-(22E, 24R)-ergosta-7,22-diene-6-one isolated from the Reference Example 1 was treated. At this time, in order to compare it, a medium containing 50 ppm of arbutin or 50 ppm of kojic acid was used as a positive control. The medium was treated for 6 days, and after three days, a new medium was exchanged. After 6 days, the cell was washed with DPBS and then, was added with 2N NaOH (10% DMSO) and dissolved at 60° C. for 1 hour. The cell lysate dissolved was moved into 96 well plates and then its absorbance (OD 475) was measured. The measured value was calculated as melanin content from the standard curve for the synthesized melanin, and the melanin content calculated was standardized by the total amount of the protein of each experimental group, and then it was compared with the control to estimate the efficiency. The results are represented in FIG. 3.
In addition, in order to compare the whitening effect of 3β, 5α-dihydroxy-6β-methoxy-(22E, 24R)-ergosta-7,22-diene and 3β, 5α, 9α-trihydroxy-(22E, 24R)-ergosta-7,22-diene-6-one with that of Lentinula edodes extract, the separate melan-a cell melanin assay experiment was performed with the same method as the above. At this time, 50 ppm of arbutin or 12.5, 25, 50, 100 ppm of ethanol extracts of Lentinula edodes obtained from the Reference Example 1 were used, and used by containing them in the medium for the cell culture. The results were represented in FIG. 4.

| SMILES | effect on the cell growth (survival rate, MTT) [1] | effect inhibiting the melanin production [2] | effect of inhibiting melanin production [2] | skin whitening effect compared with positive controls (50 ppm arbutin, 50 ppm kojic acid) [2] |
| --- | --- | --- | --- | --- |
| OC[C@H]1O[C@@H](Oc2ccc(O)cc2)[C@H](O)[C@@H](O)[C@@H]1O [arbutin] | did not affect the cell growth |  |  |  |
| CC(C)[C@@H](C)/C=C/[C@@H](C)[C@H]1CC[C@H]2C3=CC(=O)[C@@]4(O)C[C@@H](O)CC[C@]4(C)[C@@]3(O)CC[C@]12C [3β, 5α, 9α-trihydroxy-(22E, 24R)-ergosta-7,22-diene-6-one] |  | remarkable effect inhibiting the melanin production | exhibits the effect of inhibiting a melanin production | remarkably excellent skin whitening effect than albumin and kojic acid |
| CO[C@@H]1C=C2[C@@H]3CC[C@H]([C@H](C)/C=C/[C@H](C)C(C)C)[C@@]3(C)CC[C@@H]2[C@@]2(C)CC[C@H](O)C[C@]12O [3β, 5α-dihydroxy-6β-methoxy-(22E, 24R)-ergosta-7,22-diene] |  | remarkable effect inhibiting the melanin production | exhibits the effect of inhibiting a melanin production | remarkably excellent skin whitening effect than albumin and kojic acid |

From patent US9901525B2, “External use skin composition, containing Lentinula edodes-derived ergosterol” (Amorepacific Corporation, priority 2013, dated 2018)
